The text below walks through data of patent US20050042318A1, “Extracts from hop, methods for producing the same and their use” (priority 2001, published 2005).

Assay [1] concerns the target T1, human oestrogenic receptor (Homo sapiens, UniProt P03372).
T1 construct: host or cells: yeast cells
T1 sequence (P03372 1-595): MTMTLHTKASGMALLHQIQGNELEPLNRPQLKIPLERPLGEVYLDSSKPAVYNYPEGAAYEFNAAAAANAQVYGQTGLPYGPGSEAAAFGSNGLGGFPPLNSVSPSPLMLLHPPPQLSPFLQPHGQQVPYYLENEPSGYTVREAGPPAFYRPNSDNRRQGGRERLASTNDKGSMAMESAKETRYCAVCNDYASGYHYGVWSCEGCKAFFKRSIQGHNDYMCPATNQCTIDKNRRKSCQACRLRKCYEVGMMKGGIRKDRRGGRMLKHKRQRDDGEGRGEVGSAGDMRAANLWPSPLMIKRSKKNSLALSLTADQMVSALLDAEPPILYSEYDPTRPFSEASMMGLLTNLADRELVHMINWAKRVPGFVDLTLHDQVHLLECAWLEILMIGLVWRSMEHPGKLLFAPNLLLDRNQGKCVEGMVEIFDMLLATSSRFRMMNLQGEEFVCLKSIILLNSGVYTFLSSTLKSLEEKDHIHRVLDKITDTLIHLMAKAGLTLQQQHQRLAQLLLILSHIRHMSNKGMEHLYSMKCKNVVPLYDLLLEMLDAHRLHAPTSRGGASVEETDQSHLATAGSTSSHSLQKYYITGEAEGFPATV
The following applies: Milligan et al.; cited from earlier work.

Assay [2] concerns the target T2, human oestrogenic receptor alpha (ER-α) (Homo sapiens, UniProt P03372).
T2 sequence (P03372 1-595): T1 sequence (P03372 1-595)
The assay can be described thus: competitive receptor binding assay, displacement of radioactively labelled oestradiol, ER-α. The following applies: for relative potency [formula] (ratio ER-α to ER-β): head is a formula, values fit relative potency ER-α / ER-β.
Experimental: Thereby, a radioactively labelled oestradiol was initially bonded to the human oestrogen receptor and then treated with the test substance to be examined. A portion of the labelled oestradiol which corresponds to the oestrogenic potency of the sample is thus displaced. Excessive oestradiol is washed out after bonding of the complex to hydroxylapatite. The oestrogenic receptors ER-α and ER-β were commercially available as recombinant human receptors. The test preparations consisted of 1000 μl TEDG buffer (10 mM tris, 1,5 mM EDTA, 10% glycerol, pH 7.5), 5 μl receptor (200 nM), 10 μl 3H-oestradiol and 10 μl ethanol (control value), 10 μl diethylstiloestrol (100 mM, positive control) or 10 μl extract or ingredient of the extract, respectively. The preparations were carefully mixed and incubated for about 16 hours at room temperature in the dark. After incubation 250 μl hydroxylapatite (HAP) were added to absorb the proteins. During a period of incubation of 15 minutes the preparations were manually mixed with a time-lag of 5 minutes, respectively. The precipitate is separated by centrifugation at 10,000 rpm for a few seconds and the supernatant liquid is separated by pipetting. The pellet is washed three times with 1000 μl TEDG buffer, respectively, 1000 μl ethanol are added for the measurement, the mixture is slurried and transferred to a scintillation vial. After adding 9 ml scintillator liquid (Ready Safe, Beckmann) a measurement over the complete ^3H window is carried out using a Beckmann Beta-Counter.
The characterisation of the bonding capacities of the test substances results from the determination of the ED50 values taken from the dosis-effect-plots of the displacement of oestradiol.

Assay [3] has as its system Ishikawa-Var-I-cells. As to conditions: cited from earlier work.
The test system of assay [4] is ovariectomised rats. The following applies: Miyamoto et al. 1998; cited from earlier work.
For assay [5], the system named is human breast cancer cells MCF-7. The following applies: Miranda et al. 1999; cited from earlier work.
Assay [6] relates to colon cancer cell lines HAT-29. The following applies: Miranda et al. 1999; cited from earlier work.
Assay [7] relates to ovarian cancer cell lines A-2780. As to conditions: Miranda et al. 1999; cited from earlier work.
Assay [8] has as its system osteolysis. The following applies: EP 0 679 393 B1; cited from earlier work.

Take `CC(C)=CCc1c(O)cc2c(c1O)C(=O)C[C@@H](c1ccc(O)cc1)O2`: the “oestrogenic activity, human oestrogenic receptor in yeast” value (from here on “oestrogenic activity … in yeast”) in assay [1] was “weaker oestrogenic properties”. The “relative potency [formula] (ratio ER-α to ER-β)” value in assay [2] was 0.37.
Consider `CC(C)=CCc1c(O)cc(O)c2c1O[C@H](c1ccc(O)cc1)CC2=O`, for which the “oestrogenic activity in vitro, stimulating alkaline phosphatase” value in assay [3] (Ishikawa-Var-I-cells, Milligan et al. 1999) is on record as “significantly more active than the phytooestrogenes known so far”. Besides, the “oestrogenic activity … in yeast” value in assay [1] is listed as “most powerful oestrogenic activity”. Moreover, in assay [4], the osseous density entry was “normalises” and the “weight of the uterus” value is “normalises”. Besides, in assay [2], the “relative potency [formula] (ratio ER-α to ER-β)” value came out at 2.72.
For `CC(C)=CCc1c(O)c(CC=C(C)C)c2c(c1O)C(=O)C[C@@H](c1ccc(O)cc1)O2` [6,8-diprenylnaringenine], in assay [1], the “oestrogenic activity … in yeast” value is “weaker oestrogenic properties”.
Consider `CC(C)=CCC/C(C)=C/Cc1c(O)cc(O)c2c1O[C@H](c1ccc(O)cc1)CC2=O` [8-geranylnaringenine], for which the “oestrogenic activity … in yeast” value in assay [1] is recorded as “weaker oestrogenic properties”.
As to `COc1cc(O)c(CC=C(C)C)c2c1C(=O)CC(c1ccc(O)cc1)O2` (stereo not shown) [Isoxanthohumol, isoxanthohumol], the antiproliferative activity entry in assay [5], in assay [6] and in assay [7] was “strong antiproliferative activity” in each case. Besides, in assay [2], the “interaction with ER-α, in words” value is “comparable activity”. Moreover, the “relative potency [formula] (ratio ER-α to ER-β)” value in assay [2] is 0.54.
Take `COc1cc(O)c(CC=C(C)C)c(O)c1C(=O)/C=C/c1ccc(O)cc1` [Xanthohumol]: in assay [3] (Milligan et al.), the “oestrogenic activity in human endometrial carcinoma cell line Ishikawa” value is recorded as “could not be detected”. In assay [1], the “oestrogenic activity … in yeast” value is “could not be detected”. Besides, the antiproliferative activity entry in assay [5], in assay [6] and in assay [7] was “strong antiproliferative activity” throughout. In addition, the effect on osteolysis entry in assay [8] is recorded as “inhibiting effect”. Also, the “interaction with ER-α, in words” value in assay [2] was “comparable activity”. The “relative potency [formula] (ratio ER-α to ER-β)” value in assay [2] was 0.78.
